ChEMBL document CHEMBL5335794, “Discovery of novel multifunctional ligands targeting GABA transporters, butyrylcholinesterase, β-secretase, and amyloid β aggregation as potential treatment of Alzheimer's disease” (Eur J Med Chem, 2023)

Key:
[1] = target: Acetylcholinesterase (Electrophorus electricus) (UniProt O42275); experiment: Inhibition of electric eel AChE using acetylthiocholine iodide as substrate at 10 uM preincubated for 5 mins followed by substrate addition and measured after 5 mins by DTNB reagent based Ellman's method relative to control; conditions: time 10.0 min
[2] = target: Cholinesterase (Equus caballus) (UniProt P81908); experiment: Inhibition of equine serum BuChE using butyrylthiocholine iodide as substrate at 10 uM preincubated for 5 mins followed by substrate addition and measured after 5 mins by DTNB reagent based Ellman's method relative to control; conditions: time 10.0 min
Beta-secretase 1 = Beta-secretase 1 (Homo sapiens, UniProt P56817); conditions: dose 50.0 µM, time 60.0 min
Cholinesterase = Cholinesterase (Equus caballus, UniProt P81908)
Description: Inhibition of equine serum BuChE using butyrylthiocholine iodide as substrate preincubated for 5 mins followed by substrate addition and measured after 5 mins by DTNB reagent based Ellman's method

GABA transporter 2 = target: T1, GABA transporter 2 (Mus musculus, UniProt P31651); experiment: Inhibition of mouse GAT2 transfected in HEK293 cells assessed as reduction in [3H]-GABA uptake preincubated for 25 mins followed by [3H]-GABA addition and measured after 10 mins by liquid scintillation counting analysis; type: cell-based; conditions: read-out: pIC50 (converted)
T1 sequence (P31651 whole entry): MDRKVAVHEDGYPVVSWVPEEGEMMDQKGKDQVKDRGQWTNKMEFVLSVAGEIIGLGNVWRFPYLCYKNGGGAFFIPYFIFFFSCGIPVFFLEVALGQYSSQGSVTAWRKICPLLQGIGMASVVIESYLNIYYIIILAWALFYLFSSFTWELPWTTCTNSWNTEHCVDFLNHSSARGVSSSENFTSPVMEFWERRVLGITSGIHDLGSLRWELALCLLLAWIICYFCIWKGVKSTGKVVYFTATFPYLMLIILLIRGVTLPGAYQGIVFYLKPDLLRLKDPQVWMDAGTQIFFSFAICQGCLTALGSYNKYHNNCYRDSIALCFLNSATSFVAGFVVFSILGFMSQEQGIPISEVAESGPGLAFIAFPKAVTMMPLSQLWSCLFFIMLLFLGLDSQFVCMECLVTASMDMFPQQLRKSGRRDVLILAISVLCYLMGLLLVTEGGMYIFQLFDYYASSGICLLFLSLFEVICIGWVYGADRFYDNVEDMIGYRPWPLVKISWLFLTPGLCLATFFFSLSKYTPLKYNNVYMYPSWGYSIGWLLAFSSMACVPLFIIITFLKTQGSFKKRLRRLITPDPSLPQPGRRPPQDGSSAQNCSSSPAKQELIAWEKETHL

[3] = target: Sodium- and chloride-dependent GABA transporter 1 (Mus musculus) (UniProt P31648); experiment: Inhibition of NO 711 marker binding to mouse GAT1 assessed as residual activity at 100 uM by LC-ESI-MS/MS based competitive MS binding assay relative to control
[4] = Inhibition of mouse GAT3 transfected in HEK293 cells assessed as reduction in [3H]-GABA uptake preincubated for 25 mins followed by [3H]-GABA addition and measured after 4 mins by liquid scintillation counting analysis; type: cell-based; conditions: for IC50: HEK293, read-out: pIC50 (converted); for pIC50: hek293
GABA transporter 4 = target: T2, GABA transporter 4 (Mus musculus, UniProt P31650); experiment: Inhibition of mouse GAT4 transfected in HEK293 cells assessed as reduction in [3H]-GABA uptake preincubated for 25 mins followed by [3H]-GABA addition and measured after 4 mins by liquid scintillation counting analysis; type: cell-based; conditions: read-out: pIC50 (converted)
T2 sequence (P31650 whole entry): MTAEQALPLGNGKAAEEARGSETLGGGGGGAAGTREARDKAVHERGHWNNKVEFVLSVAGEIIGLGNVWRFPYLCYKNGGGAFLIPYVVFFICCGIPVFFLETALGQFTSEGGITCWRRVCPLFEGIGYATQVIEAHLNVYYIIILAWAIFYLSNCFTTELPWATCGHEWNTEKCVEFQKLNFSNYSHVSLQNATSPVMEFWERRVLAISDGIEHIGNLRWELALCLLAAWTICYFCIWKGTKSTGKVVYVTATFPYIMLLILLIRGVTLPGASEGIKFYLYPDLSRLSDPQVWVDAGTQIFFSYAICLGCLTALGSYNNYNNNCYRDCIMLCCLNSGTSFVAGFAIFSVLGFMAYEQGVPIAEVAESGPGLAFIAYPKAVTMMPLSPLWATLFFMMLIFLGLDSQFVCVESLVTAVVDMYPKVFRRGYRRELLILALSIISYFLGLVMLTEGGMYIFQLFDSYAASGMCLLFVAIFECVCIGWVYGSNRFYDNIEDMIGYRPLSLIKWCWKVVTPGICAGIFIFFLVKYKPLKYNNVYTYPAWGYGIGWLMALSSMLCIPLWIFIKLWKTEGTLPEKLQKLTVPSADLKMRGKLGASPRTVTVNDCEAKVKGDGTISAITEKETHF

[5] = target: Sodium- and chloride-dependent GABA transporter 1 (Mus musculus, UniProt P31648); experiment: Inhibition of mouse GAT1 transfected in HEK293 cells assessed as reduction in [3H]-GABA uptake preincubated for 25 mins followed by [3H]-GABA addition and measured after 4 mins by liquid scintillation counting analysis; type: cell-based; conditions: for IC50: read-out: pIC50 (converted)

Beta-secretase 1, sequence (P56817 whole entry): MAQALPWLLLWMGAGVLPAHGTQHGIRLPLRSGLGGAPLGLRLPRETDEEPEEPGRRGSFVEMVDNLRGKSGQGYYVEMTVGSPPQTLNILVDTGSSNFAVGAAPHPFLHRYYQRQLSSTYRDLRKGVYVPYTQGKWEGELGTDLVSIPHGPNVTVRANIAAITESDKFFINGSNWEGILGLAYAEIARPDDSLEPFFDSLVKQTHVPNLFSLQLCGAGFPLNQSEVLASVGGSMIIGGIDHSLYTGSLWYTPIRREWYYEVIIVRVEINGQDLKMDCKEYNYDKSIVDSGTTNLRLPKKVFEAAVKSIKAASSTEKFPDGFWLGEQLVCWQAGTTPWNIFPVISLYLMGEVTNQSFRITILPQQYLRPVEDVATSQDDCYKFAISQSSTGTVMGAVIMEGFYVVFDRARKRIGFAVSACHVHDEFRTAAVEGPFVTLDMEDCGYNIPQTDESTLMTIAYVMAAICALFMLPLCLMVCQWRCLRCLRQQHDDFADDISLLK
Cholinesterase, sequence (P81908 whole entry): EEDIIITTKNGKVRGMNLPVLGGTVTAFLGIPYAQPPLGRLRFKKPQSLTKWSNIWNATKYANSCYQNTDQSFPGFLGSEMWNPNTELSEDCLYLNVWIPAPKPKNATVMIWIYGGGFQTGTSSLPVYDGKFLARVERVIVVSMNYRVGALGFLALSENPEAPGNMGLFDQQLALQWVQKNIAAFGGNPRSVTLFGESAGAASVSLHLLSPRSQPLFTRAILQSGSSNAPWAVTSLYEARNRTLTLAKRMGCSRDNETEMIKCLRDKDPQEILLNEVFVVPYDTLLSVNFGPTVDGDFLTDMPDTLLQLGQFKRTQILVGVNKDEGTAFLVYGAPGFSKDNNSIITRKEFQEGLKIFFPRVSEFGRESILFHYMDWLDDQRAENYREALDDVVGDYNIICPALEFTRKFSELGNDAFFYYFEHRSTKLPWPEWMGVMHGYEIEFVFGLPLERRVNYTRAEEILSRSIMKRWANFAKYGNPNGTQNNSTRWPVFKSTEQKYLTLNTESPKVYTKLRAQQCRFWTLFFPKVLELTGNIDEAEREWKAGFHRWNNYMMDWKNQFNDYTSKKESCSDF
Cholinesterase (Equus caballus), sequence (P81908 whole entry): as above
Acetylcholinesterase (Electrophorus electricus), sequence (O42275 24-633 limits assumed): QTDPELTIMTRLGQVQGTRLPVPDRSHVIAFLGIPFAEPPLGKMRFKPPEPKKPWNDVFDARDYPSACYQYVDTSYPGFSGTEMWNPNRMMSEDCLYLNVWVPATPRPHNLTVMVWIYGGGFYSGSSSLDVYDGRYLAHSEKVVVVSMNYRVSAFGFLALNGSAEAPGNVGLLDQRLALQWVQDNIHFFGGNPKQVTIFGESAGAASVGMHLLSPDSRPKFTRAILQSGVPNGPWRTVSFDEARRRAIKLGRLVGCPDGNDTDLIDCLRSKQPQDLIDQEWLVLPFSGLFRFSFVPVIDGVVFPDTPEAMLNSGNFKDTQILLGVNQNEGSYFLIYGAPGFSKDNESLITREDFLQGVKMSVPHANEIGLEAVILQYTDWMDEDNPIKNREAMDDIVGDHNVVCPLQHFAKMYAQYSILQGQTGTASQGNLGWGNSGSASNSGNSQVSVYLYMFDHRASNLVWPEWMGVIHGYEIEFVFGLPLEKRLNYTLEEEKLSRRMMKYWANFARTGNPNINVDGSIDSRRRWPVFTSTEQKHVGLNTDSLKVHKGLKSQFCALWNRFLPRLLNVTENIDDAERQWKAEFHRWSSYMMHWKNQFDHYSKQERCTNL

| Structure (SMILES) | inhibition [1] [%] | inhibition [2] [%] | inhibition (Beta-secretase 1) [%] | other results |
| --- | --- | --- | --- | --- |
| CN(CCC=C1c2ccccc2CCc2ccccc21)C(CCO)C(=O)NCc1ccc(Cl)cc1 (stereo unspecified) | < 10 | 19 | 43 |  |
| CN(CCC=C1c2ccccc2CCc2ccccc21)C(CO)C(=O)NCc1ccccc1Cl (stereo unspecified) | < 10 | 52 | 72 |  |
| CN(CCC=C1c2ccccc2C=Cc2ccccc21)C(CCO)C(=O)NCc1ccc(Cl)cc1 (stereo unspecified) | < 10 | 21 | 48 |  |
| Cc1ccc(CNC(=O)C(CCO)N(C)CCC=C2c3ccccc3-c3ccccc32)cc1 (stereo unspecified) | < 10 | 52 | 55 |  |
| Cc1ccc(CNC(=O)C(CO)N(C)CCC=C2c3ccccc3C=Cc3ccccc32)cc1 (stereo unspecified) | 30 |  | 54 | IC50 (Cholinesterase): 6.22 µM |
| CN(CCC=C1c2ccccc2C=Cc2ccccc21)C(CCO)C(=O)NCc1ccc(F)cc1 (stereo unspecified) | < 10 | 39 | 39 |  |
| CC(=O)NCCC(C(=O)NCc1ccc(Cl)cc1)N(C)CCOCCN1c2ccccc2Sc2ccccc21 (stereo unspecified) | < 10 |  | 41 | IC50 (GABA transporter 2): 9.55 µM; Activity [3]: 91%; IC50 [4]: 8.91 µM; IC50 (Cholinesterase): 4.7 µM; IC50 (GABA transporter 4): 12.3 µM; IC50 [5]: 19.1 µM |
| CN(CCC=C1c2ccccc2CCc2ccccc21)C(CCO)C(=O)NCc1ccccc1Cl (stereo unspecified) | 11 | 24 | 44 |  |
| CC(O)CC(C(=O)NCc1ccccc1)N(C)CC/C=C/c1ccccc1-c1ccccc1 (racemic; form 1) [listing 1 of 2 here] |  |  |  | IC50 (GABA transporter 2): 18.2 µM; IC50 [4]: 25.1 µM; IC50 (GABA transporter 4): 50.1 µM; IC50 [5]: 37.2 µM |
| CC(O)CC(C(=O)NCc1ccccc1Cl)N(C)CC/C=C/c1ccccc1-c1ccccc1 (racemic; form 1) [listing 1 of 2 here] | < 10 | 64 | 43 | Activity [3]: 75% |
| Cc1ccc(CNC(=O)C(CCO)N(C)CCC=C2c3ccccc3CCc3ccccc32)cc1 (stereo unspecified) | < 10 | 36 | 41 |  |
| Cc1ccc(CNC(=O)C(CCO)N(C)CCC=C2c3ccccc3C=Cc3ccccc32)cc1 (stereo unspecified) | < 10 | 35 | 47 |  |
| CC(O)CC(C(=O)NCc1ccc(F)cc1)N(C)CC/C=C/c1ccccc1-c1ccccc1 (racemic; form 2) [listing 1 of 2 here] | < 10 | 62 | 36 | Activity [3]: 87% |
| CC(=O)NCCC(C(=O)NCc1ccc(F)cc1)N(C)CCC=C1c2ccccc2CCc2ccccc21 (stereo unspecified) | < 10 | 47 | 54 |  |
| CN(CCC=C1c2ccccc2CCc2ccccc21)C(CCO)C(=O)NCc1ccc(F)cc1 (stereo unspecified) | < 10 | 39 | 34 |  |
| CC(O)CC(C(=O)NCc1ccccc1Cl)N(C)CC/C=C/c1ccccc1-c1ccccc1 (racemic; form 2) [listing 1 of 2 here] |  |  |  | IC50 (GABA transporter 2): 13.5 µM; pIC50 [4]: 4.82; IC50 (Cholinesterase): 3.67 µM; IC50 (GABA transporter 4): 15.1 µM; IC50 [5]: 28.8 µM |
| CC(O)CC(C(=O)NCc1ccc(F)cc1)N(C)CC/C=C/c1ccccc1-c1ccccc1 (racemic; form 2) [listing 2 of 2 here] |  |  |  | IC50 (GABA transporter 2): 11.7 µM; pIC50 [4]: 4.87; IC50 (GABA transporter 4): 14.5 µM; pIC50 ([5]; hek293): 4.61 |
| CC(O)CC(C(=O)NCc1ccc(F)cc1)N(C)CC/C=C/c1ccccc1-c1ccccc1 (racemic; form 1) [listing 1 of 2 here] | < 10 | 59 | 39 | Activity [3]: 86% |
| CN(CCC=C1c2ccccc2C=Cc2ccccc21)C(CCO)C(=O)NCc1ccccc1 (stereo unspecified) | < 10 | 56 | 34 |  |
| CN(CCC=C1c2ccccc2CCc2ccccc21)C(CO)C(=O)NCc1ccc(Cl)cc1 (stereo unspecified) | < 10 | 36 | 34 |  |

| Structure (SMILES) | inhibition [1] [%] | inhibition [2] [%] | inhibition (Beta-secretase 1) [%] | other results |
| --- | --- | --- | --- | --- |
| CC(O)CC(C(=O)NCc1ccccc1)N(C)CC/C=C/c1ccccc1-c1ccccc1 (racemic; form 2) | < 10 |  | 4 |  |
| CC(=O)NCCC(C(=O)NCc1ccc(C)cc1)N(C)CCC=C1c2ccccc2CCc2ccccc21 (stereo unspecified) | < 10 | 43 | 36 |  |
| CC(=O)NCCC(C(=O)NCc1ccccc1Cl)N(C)CCC=C1c2ccccc2CCc2ccccc21 (stereo unspecified) | < 10 | 41 | 44 |  |
| CC(O)CC(C(=O)NCc1ccccc1)N(C)CC/C=C/c1ccccc1-c1ccccc1 (racemic; form 1) [listing 2 of 2 here] | < 10 | 58 | 36 | Activity [3]: 75% |
| CN(CCC=C1c2ccccc2CCc2ccccc21)C(CO)C(=O)NCc1ccccc1 (stereo unspecified) | < 10 | 38 | 33 |  |
| CN(CCC=C1c2ccccc2C=Cc2ccccc21)C(CO)C(=O)NCc1ccc(Cl)cc1 (stereo unspecified) | 11 | 40 | 77 |  |
| Cc1ccc(CNC(=O)C(CO)N(C)CCC=C2c3ccccc3CCc3ccccc32)cc1 (stereo unspecified) | < 10 | 45 | 59 |  |
| CN(CCC=C1c2ccccc2CCc2ccccc21)C(CCO)C(=O)NCc1ccccc1 (stereo unspecified) | < 10 | 38 | 19 |  |
| CC(O)CC(C(=O)NCc1ccccc1Cl)N(C)CC/C=C/c1ccccc1-c1ccccc1 (racemic; form 1) [listing 2 of 2 here] |  |  |  | IC50 (GABA transporter 2): 15.5 µM; IC50 [4]: 13.8 µM; IC50 (GABA transporter 4): 38 µM; IC50 [5]: 33.9 µM |
| CC(=O)NCCC(C(=O)NCc1ccc(Cl)cc1)N(C)CCC=C1c2ccccc2CCc2ccccc21 (stereo unspecified) | < 10 | 24 | 49 |  |
| CN(CCC=C1c2ccccc2C=Cc2ccccc21)C(CCO)C(=O)NCc1ccccc1Cl (stereo unspecified) | < 10 | 32 | 48 |  |
| CN(CCC=C1c2ccccc2CCc2ccccc21)C(CO)C(=O)NCc1ccc(F)cc1 (stereo unspecified) | < 10 | 32 | 48 |  |
| CN(CCC=C1c2ccccc2-c2ccccc21)C(CCO)C(=O)NCc1ccccc1Cl (stereo unspecified) | < 10 |  | 59 | IC50 (Cholinesterase): 1.63 µM |
| CN(CCC=C1c2ccccc2C=Cc2ccccc21)C(CO)C(=O)NCc1ccccc1 (stereo unspecified) | < 10 |  | 29 | IC50 (Cholinesterase): 4.35 µM |
| CN(CCC=C1c2ccccc2C=Cc2ccccc21)C(CO)C(=O)NCc1ccccc1Cl (stereo unspecified) | 12 |  | 52 | IC50 (Cholinesterase): 8.23 µM |
| CN(CCC=C1c2ccccc2C=Cc2ccccc21)C(CO)C(=O)NCc1ccc(F)cc1 (stereo unspecified) | < 10 |  | 30 | IC50 (Cholinesterase): 3.24 µM |
| CC(=O)NCCC(C(=O)NCc1ccccc1)N(C)CCC=C1c2ccccc2CCc2ccccc21 (stereo unspecified) | < 10 | 60 | 34 |  |
| CC(O)CC(C(=O)NCc1ccc(F)cc1)N(C)CC/C=C/c1ccccc1-c1ccccc1 (racemic; form 1) [listing 2 of 2 here] |  |  |  | IC50 (GABA transporter 2): 9.77 µM; IC50 [4]: 8.91 µM; IC50 (GABA transporter 4): 19.1 µM; IC50 [5]: 24.5 µM |
| CC(O)CC(C(=O)NCc1ccccc1Cl)N(C)CC/C=C/c1ccccc1-c1ccccc1 (racemic; form 2) [listing 2 of 2 here] | < 10 |  | 57 | Activity [3]: 76% |
